Here are results for 1 compound from patent US11793775B2, “Combined therapy for treating Alzheimer's disease” (MERRY LIFE BIOMEDICAL COMPANY, LTD., priority 2021, dated 2023).

SMILES strings stand for the structures.

The test system of data set [1] is microglia. The data set is described as follows: Microglial Aβ phagocytosis by co-localization of Iba1 and Aβ plaques. The settings on record: brain of APP/PS1 mice, FIG. 5A. Format: in vivo. As to the method:
(§1) For study of combination treatment, APP/PS1 mice were randomly assigned into four groups and were subjected to the treatments at 3 months of age (the early/prodromal stage of AD) for 4 months. Wt littermates (n=10) were also included for behavioral tests as a WT control group at 7 months. […] Body weight was recorded weekly. After 4 months of treatments, mice at age of 7 months were subjected to the following examinations.
Brain sections were fixed in 4% paraformaldehyde followed by cryoprotection with 30% sucrose in 1×PBS. Floating sections at 30 μm thickness were stored in 1×PBS with 0.05% sodium azide at 4° C. until use. Amylo-Glo RTD™ (TR-400-AG, Biosensis, Thebarton, Australia) was used for detection of amyloid-β (Aβ) plaques in the brain sections per manufacturer's instruction. The sections were mounted on the slide covered with mounting medium (Vectashield H-1000, Vector Laborotories, Burlingame, Calif., USA). Images were acquired using Leica confocal microscopy imaging system. […] Quantification for sizes of AP deposits larger or smaller than 500 μm^2 were presented. […]
Since microglia are primary immune cells in the brain responsible for Aβ clearance, treatment effects on microglial Aβ phagocytosis was evaluated by co-localization of microglia and Aβ plaques using confocal microscopy.

The nature of data set [2]: Stability of TML-6 in TML-6 diet by LC/MS/MS. In kind it is physicochemical. The settings on record: rodent chow supplemented with TML-6, LC/MS/MS. As to the method: TML-6, a small molecule curcumin analog, was used in this study. A regular rodent chow (Laboratory Rodent Diet 5001) supplemented with TML-6 at 100 mg/kg rodent chow was provided by Merry Life Biomedical company, Ltd. Content, purity, and stability of TML-6 in TML-6 diet at different storage conditions were analyzed using LC/MS/MS via service provided by the Development Center for Biotechnology, Taiwan. TML-6 diet was stored at 4° C. and was added to mouse cages twice a week for ad libitum feeding regimens. Daily uptake of TML-6 in APP/PS1 mice was estimated based on average consumption of rodent chow supplemented with TML-6 at 100 mg/kg chow for 24 hr or 8 days. Briefly, three APP/PS1 mice were housed individually in metabolic cages with an apparatus for measuring food-intake. Estimated TML-6 uptake per kg body weight per day was calculated by multiplying the daily consumption of TML-6 supplemented chow by the amount of TML-6 in the chow divided by body weight.

Data set [3] relates to microglia. The data set is described as follows: Morphological analyses of microglia (neurite outgrowth analyses). In kind it is in vivo, APP/PS1 mice. The note with it: total length of cell-associated skeletonized outgrowth, FIG. 5G.
Data set [4] deals with APP/PS1 mice. The data set is described as follows: Morris water maze. The note with it: training course, compared with wt. In kind it is in vivo. The protocol:
as §1
To evaluate spatial learning and memory deficits in APP/PS1 mice, a circular pool of 120 cm in diameter and 40 cm in height was used. The pool was filled with milk at 22-24 ° C. to approximately 20 cm in deep. A hidden platform was submerged 1 cm below the surface of milk. All experimental mice were transferred to the behavior testing room 30 min prior to the water maze to habituate to the test environment. During the training course, mice received 3 trials per day with a 60-minute inter-trial interval for 6 days. Probe test without the hidden platform was performed at day 7 and mice were allowed to investigate for 60 seconds. An overhead camera and a computerized video imaging analysis system were used to analyze the swimming paths and the escape latency.

For data set [5], the system named is APP/PS1 mice. The data set is described as follows: Nesting test. In kind it is in vivo. As to the method:
as §1
Before the test for nesting, mice were individually housed for 5 hr. A nestlet pressed-cotton square (Ancare) was then placed into each cage 1 hour before the start of the dark cycle. Pictures of a nestlet were taken at indicated time points, and the entire test underwent for 52 hr. Nest construction was scored by two persons unaware of treatments using a 5-point scaling system as described previously (Yeh et al. 2015). Briefly, a score of 1 indicates a >90% intact nestlet, whereas a score of 5 indicates a <10% intact nestlet and the construction of a nest with an obvious crater.

In the next data set the test system is Aβ plaques. As to the kind of experiment: Aβ plaque deposition by Amylo-glo staining of brain sections. Format: in vivo. The settings on record: cortex and hippocampus, APP/PS1 mice at 7 months, 4 months treatment, vs APP/PS1 controls. The protocol:
as §1
Brain sections were fixed in 4% paraformaldehyde followed by cryoprotection with 30% sucrose in 1×PBS. Floating sections at 30 μm thickness were stored in 1×PBS with 0.05% sodium azide at 4° C. until use. Amylo-Glo RTD™ (TR-400-AG, Biosensis, Thebarton, Australia) was used for detection of amyloid-β (Aβ) plaques in the brain sections per manufacturer's instruction. The sections were mounted on the slide covered with mounting medium (Vectashield H-1000, Vector Laborotories, Burlingame, Calif., USA). Images were acquired using Leica confocal microscopy imaging system. Numbers of Aβ deposits and fluorescent area positive for AP deposits were normalized with total area of the section using MetaMorph imaging software. Quantification for sizes of AP deposits larger or smaller than 500 μm^2 were presented. […]

On to `CCN(CC)C(=O)CC(C)(C(=O)/C=C/c1ccc(OC)c(OC)c1)C(=O)/C=C/c1ccc(OC)c(OC)c1` [TML-6], for which the “microglial Aβ phagocytosis (co-localization of Iba1 and Aβ plaques)” value in the data set with microglia [1] is “not affected”. Besides, the “amount of TML-6 in rodent chow at various storage conditions” value in data set [2] was “stable”. Moreover, the “total outgrowth of microglia” value with microglia [3] was “increased”. Further, the “latency of finding the hidden platform” value with APP/PS1 mice [4] is on record as “comparable to that of wt”. In addition, the nesting scores entry with APP/PS1 mice [5] (two-way ANOVA, vs APP/PS1 controls, FIG. 4A) was “significant improvements”. Besides, the “slopes of nesting scores, p (linear regression)” value stood at 0.07173 in the data set on APP/PS1 mice [5] (vs APP/PS1 controls, FIG. 4B) and 0.1648 in the data set on APP/PS1 mice [5] (vs wt). The “Aβ depositions (Amylo-glo staining)” value in the data set with Aβ plaques was “lower levels of Aβ depositions”.
